Assay results: paper PMC6753678, “Fueling Open Innovation for Malaria Transmission-Blocking Drugs: Hundreds of Molecules Targeting Early Parasite Mosquito Stages” (Frontiers in Microbiology, 2019)
Like-named read-outs stand apart in the source and are kept apart here.

How the values were obtained:
[1] = tested on: 3D7-strain P. falciparum asexual parasites; assay: P. falciparum asexual growth inhibition assay (Pf GIA); type: cell-based, Plasmodium falciparum; conditions: dose response confirmation; read-out: Pf asexual growth inhibition assays IC50
Method in brief: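 Read-out was lactate dehydrogenase activity measured by absorbance at 650 nm after freezing and thawing, against 50 μM chloroquine and DMSO controls. Before that, asexual 3D7 cultures (0.25% parasitemia, 2% hematocrit) had 72 h dose-response compound exposure at 37°C in 5% CO2/5% O2/90% N2; three independent replicates averaged.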

[2] = tested on: HepG2 cells; assay: HepG2 cytotoxicity assay; conditions: for IC50: read-out: HepG2 cytotoxicity assay IC50, dose response confirmation; for Pb ODA (this manuscript) HepG2 cytoxicity: HepG2 cytotoxicity listed with the Pb ODA data set (this manuscript)
Method in brief: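 HepG2 cells, 2,500 per well in MEM with 10% FBS and 1% NEAA, exposed to compounds for 48 h at 37°C, 5% CO2. Viability read by fluorescence; percent inhibition relative to 50 μM doxorubicin and DMSO controls.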

[3] = tested on: P. berghei ookinete development; conditions: for % inhibition, Replicate A / % inhibition, Replicate B: primary screen at 1 μM
[4] = HepG2 values of the three screens unified
[5] = read-out: Pb ODA IC50, this manuscript
[6] = read-out: Pb Ookinete development assay IC50, dose response confirmation
[7] = unified HepG2 value across the three screens
[8] = read-out: Pb ODA (this manuscript) IC50, P. berghei ookinete development assay, this manuscript

Row | SMILES | IC50 [1] [nM] | HepG2 cytoxicity (Pb ODA, this manuscript) [2] [µM] | Unified cytotox [2, 4] [µM] | IC50 [2] [nM] | Is compound selective in assay? Pb ODA active? ([3]; 1: YES, 0: NO) | % inhibition, Replicate A [3] [%] | % inhibition, Replicate B [3] [%] | IC50 [3, 5] [nM] | IC50 [3, 6] [nM] | Unified cytotox [2, 7] [µM] | Pb ODA (this manuscript) HepG2 cytoxicity [2] [µM] | Is compound selective in assay? Pb ODA active? [3] | IC50 [3, 8] [nM] | Unified cytotox [2] [µM]
1 | Nc1nc(N)c2c(ccc3c2ccn3CCCC(F)(F)F)n1 [TCMDC-138622] | 105 | 0.37 | 0.37 | 370 | 0 (0: NO) | 33.98 | 53.93 | 6060 | 6060 | – | – | – | – | –
2 | Nc1nc(N)c2c(ccc3c2ccn3CCCF)n1 [TCMDC-138623] | 122 | 1.10 | 1.10 | 1100 | 0 (0: NO) | 92.24 | 33.21 | 1890 | 1890 | – | – | – | – | –
3 | CN1CCN(c2ccc(Nc3nccc(-c4cnn5ncccc45)n3)cc2Cl)CC1 [TCMDC-138688] | 929 | – | – | 46800 | 1 (1: YES) | 69.14 | 64.46 | 1800 | 1800 | 46.77 | – | – | – | –
4 | CC(=O)c1ccc(NC(=O)Nc2ccc(N(C)c3ccnc(Nc4cccc(CS(C)(=O)=O)c4)n3)cc2)cc1 [TCMDC-138736] | 607 | – | – | 2110 | 1 (1: YES) | 94.55 | 90.04 | 200 | 202 | 2.11 | – | – | – | –
5 | Cc1[nH]c(C)c(-c2ccc(Oc3ccc(OC(F)(F)F)cc3)cc2)c(=O)c1Br [TCMDC-138826] | 274 | – | – | 75900 | – | 67.69 | 78.09 | – | 7890 | – | 75.86 | 0 (key: 1: YES; 0: NO) | 7890 | –
6 | Cc1ccc(Nc2nc3cc(N(C)c4ccnc(Nc5cccc(CCS(C)(=O)=O)c5)n4)ccc3n2C)cc1.O=C(O)C(F)(F)F [TCMDC-138853] | 0.433 | – | – | 3310 | 0 (0: NO) | 113.72 | 29.45 | 1880 | 1880 | 3.31 | – | – | – | –
7 | Cc1[nH]c(C)c(-c2ccc(OCc3ccccc3)cc2)c(=O)c1Br [TCMDC-138901] | 108 | – | – | 100000 | – | 91.81 | 92.28 | – | 224 | – | 100.00 | 1 (key: 1: YES; 0: NO) | 220 | –
8 | OCCc1ccc(Nc2nccc(-c3nnc4ccccn34)n2)cc1 [TCMDC-138924] | < 0.2 | – | – | 100000 | 1 (1: YES) | 70.77 | 81.57 | 400 | 395 | 100.00 | – | – | – | –
9 | Cc1[nH]c(C)c(-c2ccc(OCc3ccc(F)cc3)cc2)c(=O)c1Br [TCMDC-138928] | 108 | – | – | 100000 | – | 93.24 | 106.54 | – | 595 | – | 100.00 | 1 (key: 1: YES; 0: NO) | 600 | –
10 | CCCOc1cc(OCCC)cc(-c2cc(=O)c3ccccc3[nH]2)c1 [TCMDC-138943] | 76 | – | – | 100000 | 1 (1: YES) | 86.05 | 83.39 | 550 | 547 | 100.00 | – | – | – | –
11 | COc1ccc2nc3cc(Cl)ccc3c(NCCN(C)C)c2c1 [TCMDC-139093] | 48 | – | – | 15800 | – | 73.14 | 67.89 | – | 2200 | – | 15.85 | 0 (key: 1: YES; 0: NO) | – | –
12 | CN1Cc2cc(NC(=O)/C=C/c3ccccc3Cl)ccc2C(C)(C)C1.Cl [TCMDC-139315] | 679 | – | – | 20400 | 1 (1: YES) | 114.62 | 130.13 | 560 | 563 | 20.42 | – | – | – | –
13 | O=c1cc(NCCCN(Cc2ccccc2)Cc2ccccc2)[nH]c2ccccc12 [TCMDC-139368] | 1120 | – | – | 33900 | 1 (1: YES) | 31.96 | 60.20 | 2870 | 2870 | 33.88 | – | – | – | –
14 | CCOC(=O)[C@H](Cc1cc([N+](=O)[O-])c(Oc2ccc(OC)c(Cc3ccc(OC)c(C(C)C)c3)c2)c([N+](=O)[O-])c1)NC(=O)C(F)(F)F [TCMDC-139398] | 9490 | – | – | 100000 | 1 (1: YES) | 63.87 | 33.42 | 4900 | 4900 | 100.00 | – | – | – | –
15 | Cl.O=c1cc(NCCCNCc2sc(Br)c(Br)c2Br)[nH]c2ccccc12 [TCMDC-139647] | 977 | – | – | 34700 | 1 (1: YES) | 55.06 | 82.69 | 1960 | 1960 | 34.67 | – | – | – | –
16 | Cl.Oc1cc(-c2nc(-c3ccccc3)[nH]c2-c2ccncc2)ccc1Cl [TCMDC-139660] | 1790 | – | – | 9770 | – | 79.35 | 69.44 | 1760 | 1760 | – | – | 0 (key: 1: YES; 0: NO) | – | 9.77
17 | CC(C)Nc1nc(NC2CCCCC2)nc(N2CCCCCCC2)n1 [TCMDC-139688] | 2240 | – | – | 33100 | 1 (1: YES) | 67.11 | 52.41 | – | 3260 | 33.11 | – | – | – | –
18 | COc1cc(NC(=O)Nc2ccc(Br)cc2C(=O)Nc2ccc(Br)cc2)cc(OC)c1OC [TCMDC-139733] | 2090 | – | – | 100000 | 1 (1: YES) | 44.63 | 66.05 | 6380 | 6380 | 100.00 | – | – | – | –
19 | C=C[C@H]1CN(CCCCCCC)CC[C@H]1CC(=O)Nc1cnnc2ccc(OC)cc12.O=C(O)C(=O)O [TCMDC-139791] | 276 | – | – | 33900 | 1 (1: YES) | 17.33 | 54.49 | 2770 | 2770 | 33.88 | – | – | – | –
20 | COc1ccc(Cn2ccc3c4c(N)nc(N)nc4ccc32)cc1 [TCMDC-139862] | < 0.2 | 0.011 | 0.011 | 11 | 0 (0: NO) | 43.74 | 74.79 | 320 | 315 | – | – | – | – | –
21 | COc1ccc2nccc([C@@H](O)CN3CCC(NCCOc4cc(C(F)(F)F)ccc4F)CC3)c2c1.O=C(O)C(=O)O [TCMDC-140658] | 35 | 0.00343 | 0.00343 | 3.43 | 0 (0: NO) | 63.44 | 46.33 | 3210 | 3210 | – | – | – | – | –
22 | COc1ccc2nccc([C@@H](O)CN3CCC(NCCOc4ccc(F)cc4Cl)CC3)c2c1.O=C(O)C(=O)O [TCMDC-140660] | 173 | 32.36 | 32.36 | 32400 | 0 (0: NO) | 30.16 | 50.20 | 8290 | 8290 | – | – | – | – | –
23 | COc1cc(-c2nc(C(C)(C)CN)[nH]c2-c2ccncc2)ccc1Br.Cl [TCMDC-140674] | 3120 | – | – | 39800 | – | 75.42 | 38.48 | – | 1320 | – | 39.81 | 1 (key: 1: YES; 0: NO) | 1320 | –
24 | COc1cccc(CNCC(C)(C)c2nc(-c3ccc(Cl)c(O)c3)c(-c3ccncc3)[nH]2)c1.Cl [TCMDC-140687] | 759 | – | – | 5010 | – | 13.26 | 51.15 | – | 3740 | – | 5.01 | 0 (key: 1: YES; 0: NO) | 3740 | –
